According to PubChem BioAssay (NCI):
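Interpolation was linear, between the two tested concentrations surrounding the appropriate level; five concentrations were tested over 48 hours in 96-well plates. The concentration for full growth arrest is given as TGI.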

How the values were obtained:
Assay in all cases: NCI-60 cell line screen, 48 h
[1] = tested on: 786-0 renal
[2] = tested on: A498 renal
[3] = tested on: BT-549 breast
[4] = tested on: CCRF-CEM leukemia
[5] = tested on: EKVX NSCLC
[6] = tested on: HL-60(TB) leukemia
[7] = tested on: HOP-62 NSCLC
[8] = tested on: HS 578T breast
[9] = tested on: HT29 colon
[10] = tested on: IGROV1 ovarian
[11] = tested on: KM12 colon
[12] = tested on: MCF7 breast
[13] = tested on: MDA-MB-435
[14] = tested on: NCI-H23 lung
[15] = tested on: NCI-H522 lung
[16] = tested on: OVCAR-4 ovarian
[17] = tested on: OVCAR-8 ovarian
[18] = tested on: PC-3 prostate
[19] = tested on: RPMI-8226 leukemia
[20] = tested on: RXF 393 renal

| SMILES | TGI [1] | TGI [2] | TGI [3] | TGI [4] | TGI [5] | TGI [6] | TGI [7] | TGI [8] | TGI [9] | TGI [10] | TGI [11] | TGI [12] | TGI [13] | TGI [14] | TGI [15] | TGI [16] | TGI [17] | TGI [18] | TGI [19] | TGI [20] |
| --- | --- | --- | --- | --- | --- | --- | --- | --- | --- | --- | --- | --- | --- | --- | --- | --- | --- | --- | --- | --- |
| Cc1cccc(C)c1NC(=O)C(=O)CC(=O)/C=C/c1ccccc1 | > 100 µM | > 100 µM | > 100 µM | > 100 µM | > 100 µM | > 100 µM | > 100 µM | > 100 µM | > 100 µM | > 100 µM | > 100 µM | > 100 µM | > 100 µM | > 100 µM | > 100 µM | > 100 µM | > 100 µM | > 100 µM | > 100 µM | > 100 µM |
| CN1C/C(=C\c2cccs2)C2=NN(C)C(c3cccs3)C2C1 (centres undefined) | > 100 µM | > 100 µM | > 100 µM | > 100 µM | > 100 µM | 43.6 µM | > 100 µM | > 100 µM | > 100 µM | > 100 µM | > 100 µM | > 100 µM | > 100 µM | > 100 µM | > 100 µM | > 100 µM | > 100 µM | > 100 µM | 95.3 µM | > 100 µM |
| COc1c(OC(C)C)c(OC(C)C)c2oc(=O)n3c2c1C(c1ccccc1-n1c(C)ccc1C)C=C3 (centres undefined) | > 100 µM | > 100 µM | > 100 µM | > 100 µM | 95.4 µM | > 100 µM | > 100 µM | > 100 µM | > 100 µM | > 100 µM | > 100 µM | > 100 µM | > 100 µM | > 100 µM | > 100 µM | > 100 µM | > 100 µM | > 100 µM | > 100 µM | 62.5 µM |
| CC(O)c1cc2c(s1)C(=O)c1ccsc1C2=O (centres undefined) | 2.83 µM | 2.95 µM | 0.23 µM | 0.781 µM | 0.551 µM | 0.0791 µM | 0.283 µM | 0.566 µM |  | 1.25 µM | 1.2 µM | 0.32 µM | 0.026 µM | 0.0304 µM | 0.381 µM | 0.533 µM | 1.01 µM | 0.158 µM | 0.416 µM | 0.56 µM |
| O=C1c2ccccc2CN1c1ccc(OCCN2CCCCC2)cc1 | > 10 µM | > 10 µM | > 10 µM | > 10 µM | > 10 µM | > 10 µM | > 10 µM | > 10 µM | > 10 µM | > 10 µM | > 10 µM | > 10 µM | > 10 µM | > 10 µM | > 10 µM | > 10 µM | > 10 µM | > 10 µM | > 10 µM | > 10 µM |
| CN(C)CCCn1c(Cc2ccc(Cl)cc2)nc2cc(C(F)(F)F)ccc21 | 27 µM | 25.5 µM | 32.4 µM | > 43.7 µM | 32.7 µM | 61.9 µM | 28.8 µM | 33.6 µM | 29.8 µM | 27.3 µM | 28.1 µM | 27.6 µM | 26.6 µM | 31.4 µM | 28.1 µM | 27.6 µM | 33.4 µM | 29 µM | > 100 µM | 22.7 µM |
| Oc1cc2c3c(c1)CCCN3CCC2 | > 10 µM | > 10 µM | > 10 µM | > 10 µM | > 10 µM | > 10 µM | > 10 µM | > 10 µM | > 10 µM | > 10 µM | > 10 µM | > 10 µM | > 10 µM | > 10 µM | > 10 µM | > 10 µM | > 10 µM | > 10 µM | > 10 µM | > 10 µM |
| COC(=O)C1=CSC2(S1)C(C(=O)OC)=CSc1c2ssc1=O (centres undefined) | 2.96 µM | 12.5 µM | 12.9 µM | 2.47 µM | 14.5 µM | 3.45 µM | 17 µM | 12.3 µM | 3.71 µM | 2.9 µM | 12.8 µM | 2.89 µM | 4.34 µM | 5.12 µM | 3.14 µM | 3.81 µM | 8.47 µM | 6.03 µM | 4.24 µM | 3.62 µM |
| C=C1C(=O)O[C@@H]2[C@@H]3O[C@@H](C[C@@H]13)[C@](C)(O)CC/C=C(\C)CCC[C@@H]2C | 18.9 µM | 26.2 µM | 27.5 µM | 34.8 µM | 32 µM | 10.4 µM | 30.5 µM | 37.8 µM | > 100 µM | 22.6 µM | 43.1 µM | 22.1 µM | 24.9 µM | 28 µM | 20.1 µM | 29.6 µM | 22.2 µM | 22.9 µM | 20.6 µM | 30.1 µM |
| O=C(N/N=C/c1c(-c2ccccc2)no[n+]1[O-])N1CCOCC1 | > 100 µM | > 100 µM | > 100 µM | > 100 µM | > 100 µM | > 100 µM | > 100 µM | > 100 µM | > 100 µM | > 100 µM | > 100 µM | > 100 µM | > 100 µM | > 100 µM | > 100 µM | > 100 µM | > 100 µM | > 100 µM | > 100 µM | > 100 µM |
| NC(=O)c1cc2ccc(O)cc2o/c1=N/NC(=O)c1ccccc1 | > 100 µM | > 100 µM | > 100 µM | > 100 µM | > 100 µM | > 100 µM | > 100 µM | > 100 µM | > 100 µM | > 100 µM | > 100 µM | > 100 µM | > 100 µM | > 100 µM | > 100 µM | > 100 µM | > 100 µM | > 100 µM | > 100 µM | > 100 µM |
| Cc1occc1C(=S)Nc1ccc(Cl)c(C(=O)OC(C(C)C)C(C)C)c1 | 30.9 µM | 27.8 µM | 34.6 µM | 33 µM | 27.3 µM | 29.8 µM | 42.3 µM | 48.5 µM | 33.5 µM | 31.5 µM | 29.9 µM | 34 µM | 65.8 µM | 23 µM | 25.9 µM | 41.9 µM | 26.5 µM | 25.4 µM | 29.6 µM | 33.7 µM |
| CCn1c(SCC(=O)N/N=C/c2ccccc2)nc2ccccc2c1=O | 41.7 µM | 65 µM | > 100 µM | > 100 µM | > 100 µM | > 100 µM | > 78.3 µM | 49.3 µM | > 100 µM | > 93.1 µM | > 68.8 µM | > 46.4 µM | 17.6 µM | > 100 µM | 27.5 µM | 72.8 µM | > 82.1 µM | > 46.4 µM | > 100 µM | 27.2 µM |
| CCCCCCc1ccc(C(=O)NO)cc1 | 46.6 µM | 81.7 µM | > 100 µM | 52.8 µM | > 100 µM | 53.8 µM | > 100 µM | > 100 µM | > 100 µM | > 100 µM | > 100 µM | > 100 µM | > 100 µM | > 100 µM | 80.4 µM | 84.4 µM | 35.6 µM | > 100 µM | 56.8 µM | > 100 µM |
| O=c1c2cc(-c3ccccc3)sc2nc2n1N=C(c1ccc(Cl)cc1)CS2 | > 100 µM | > 100 µM | > 100 µM | > 100 µM | > 100 µM | > 100 µM | > 100 µM | > 100 µM | > 100 µM | > 100 µM | > 100 µM | > 100 µM | > 100 µM | > 100 µM | > 100 µM | > 100 µM | > 100 µM | > 100 µM | > 100 µM | > 100 µM |
